Test results from patent US20050233963A1 (priority 2000, published 2005).

Columns and labels:
[1] = system: SN hantavirus; format: cell-based, Sin Nombre virus
[2] = system: HIV-1; conditions: overexpression in virus-producing cells (Callahan et al., 1998); cited from earlier work
[3] = target: T1, hsc70 (Bos taurus, UniProt P19120); experiment: UBP far-western analysis on hsc70; format: binding; set-up: purchased Stressgen; conditions: GST fusions as probe
From the text: (§1) FIG. 13A: Thirty μg of HeLa cell lysate was separated by SDS-PAGE in three identical lanes, blotted to nitrocellulose and probed with either, no probe (none), GST alone, or GST-UBP. The far-western blot was then developed with anti-GST antibody to reveal bands which interact with UBP. The arrow to the right indicates a 70 kD band detected by the GST-UBP fusion. The numbers to the left of each blot represent molecular weights in kilodaltons. […] FIG. 13C, Samples from the GST-UBP pull down assay were analyzed by western blot for the presence hsc70. At the bottom of the gel, the contents of each reaction are indicated by the plus symbols. The NaCl concentration of the washing buffer (100, 200, 300, and 500 mM) is indicated at the top of each lane. The arrow to the right of the blot indicates the position of the hsc70 band.
The term “hsc70” is used when referring to both hsp70 and its nearly identical constitutive counterpart, hsc70. […] The numbers to the left of the blots indicate the molecular weights in kilodaltons. The diagram below the blots indicates regions of UBP contained in each fusion construct. The column to the right summarizes the results, where a plus symbol indicates binding and a minus symbol indicates no binding.
Western blots were performed using standard techniques. […]

[4] = system: hsp90; experiment: UBP far-western analysis on hsp90; format: binding; conditions: purified hsp90
Description: The numbers to the left of the blots indicate the molecular weights in kilodaltons. The regions of UBP contained in each fusion construct are diagrammed below the blots. The right column summarizes the results: a plus symbol indicates binding and a minus symbol indicates no binding.
Western blots were performed using standard techniques. Briefly, 30 μg HeLa cytoplasmic extract or 20 ng of hsc70, hsp70, or hsp90 were denatured in 1×SDS sample buffer. The samples were loaded on a 10% polyacrylamide gel. Separated protein was transferred to nitrocellulose membranes. The membranes were blocked in 5% dry milk protein in TBS (20 mM Tris [pH 7.4], 100 mM NaCl) for 45 min. […] Primary antibody, either anti-hsp70 or hsp90 monoclonal antibodies, or anti-UBP rabbit polyclonal antibody was incubated with the blots at appropriate concentrations (1:1000 dilutions for each) in 5% milk protein in TBS for 2 hours at 4° C. with gentle rocking. The membranes were washed with TBS for 10 minutes. Secondary antibody, either alkaline phosphatase conjugated goat anti-mouse IgG or alkaline phosphatase conjugated goat anti-rabbit IgG diluted at 1:5000 in 5% Milk in TBS, was incubated with the blots for 2 hours at 4° C. with gentle rocking. […]

[5] = target: T1, hsc70; experiment: Refolding of heat-denatured luciferase by hsc70; conditions: 28 nM hsc70, 1 mM ATP, 0 to 100 minutes at 30° C.
[6] = target: T1, hsc70; experiment: Hsc70 ATPase assay; format: biochemical; set-up: purchased Stressgen; conditions: 28 nM hsc70, 0-176 nM UBP, 1 hr at 30° C.
Description: ADP was separated from ATP by thin-layer chromatography and quantified using a phosphorimager. […] The data are represented as the percent ATP hydrolysis and are plotted as a function of time from 0-75 minutes.
ATPase assays were performed essentially as described (Liberek et al., 1991, J. Biol. Chem. 266:14491-14496). […] The reactions were carried out at 30° C. in ATPase buffer (30 mM 4-(-2 hydroxymethl)-1-piperazineethanesulfonic acid (HEPES) buffer pH 7.5, 40 mM KCl, 50 mM NaCl, 5 mM MgCl2, and 2 mM dithiothreitol). […] A 5 μl aliquot of each reaction was directly loaded onto a polyethylamine-cellulose (PEI)-thin layer sheet (Selecto Scientific, Suwanee, Ga.). The products were separated from the substrate by chromatography using 1 M formic acid/1 M LiCl (1:1, vol/vol) as a vehicle. The location of ADP and ATP on the plates was visualized by use of a Phosphorimager (Molecular Dynamics, San Jose, Calif.). […] Five μl aliquots of each reaction were taken at time points of 0, 15, 30, 45, 60, 75 minutes. The samples were analyzed as previously described. Data were quantified and expressed as the percent ATP hydrolysis.

[7] = target: T1, hsc70; experiment: GST-UBP/hsc70 pull down assay with NaCl washes; format: binding; set-up: purchased Stressgen; conditions: washes of increasing NaCl, up to 0.5 M NaCl
From the text: as §1
Either GST or GST-UBP protein was incubated with a 100 μl bed volume of beads in a total volume of 300 μl of binding buffer at 4° C. with gentle rocking for 2 hours. The beads were washed and then blocked with 5% BSA in binding buffers. The beads were washed in binding buffer then incubated with 200 ng of hsc70 in binding buffer for 2 hours at 4° C. […] The samples were heated to 80° C. for 3 minutes then supernatants recovered by centrifugation were analyzed by western blot for hsc70.

T1 sequence (P19120 2-650 limits assumed): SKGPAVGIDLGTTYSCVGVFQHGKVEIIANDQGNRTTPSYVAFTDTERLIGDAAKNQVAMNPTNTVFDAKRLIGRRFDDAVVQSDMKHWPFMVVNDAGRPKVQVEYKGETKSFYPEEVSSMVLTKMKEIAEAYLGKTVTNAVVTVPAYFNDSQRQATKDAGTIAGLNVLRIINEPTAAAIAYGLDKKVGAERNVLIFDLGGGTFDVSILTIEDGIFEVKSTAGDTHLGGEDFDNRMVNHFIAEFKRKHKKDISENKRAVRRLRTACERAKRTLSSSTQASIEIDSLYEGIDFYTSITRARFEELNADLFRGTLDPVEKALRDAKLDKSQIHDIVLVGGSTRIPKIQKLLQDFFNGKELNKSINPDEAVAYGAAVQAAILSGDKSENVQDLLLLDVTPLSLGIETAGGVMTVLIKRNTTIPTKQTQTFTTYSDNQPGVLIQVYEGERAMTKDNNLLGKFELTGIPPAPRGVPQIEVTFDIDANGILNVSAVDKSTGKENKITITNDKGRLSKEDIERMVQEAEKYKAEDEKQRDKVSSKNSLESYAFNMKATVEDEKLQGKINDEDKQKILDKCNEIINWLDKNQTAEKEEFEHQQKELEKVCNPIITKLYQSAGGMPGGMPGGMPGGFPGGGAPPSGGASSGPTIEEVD

Compound	inhibition of viral RNA titers [1]	viral RNA titers after heat shock [1]	HIV-1 virion release [2]	interaction with hsc70 [3]	association with hsp90 [4]	inhibition of hs70-dependent refolding of luciferase [5]	hsc70-mediated hydrolysis of ATP [6]	stability of UBP-hs70 interaction to NaCl washes [7]
O=c1c(O)c(-c2ccc(O)c(O)c2)oc2cc(O)cc(O)c12 [quercetin]	7.3 fold	did not have increased levels of viral RNA titers	–	–	–	–	–	–
UBP: Viral protein U (Vpu) binding protein, cellular tetratricopeptide repeat (TPR) co-chaperone family member	–	–	significant reduction	does stably associate	could associate	about 30%	negatively affected	maintained even in the presence of relatively high salt concentrations
